Experimental data as given in patent US20250057823A1, “COMPOSITION FOR IMPROVING CARDIAC FUNCTION” (Kyoto University, priority 2021, published 2025).
Where a name gives a salt, the structure may show the parent alone.

What was measured:
Format in all cases: in vivo
[1] = test system: mouse models of pressure overload-induced cardiac hypertrophy/heart failure (TAC); assay: Mouse models of pressure overload-induced (TAC) heart failure during acute phase; details: TAC mice, 50 mg/kg i.p. immediately after TAC, three hours later
Protocol: (§1) Transverse aortic constriction (TAC) was performed as described previously [Date, et al. (2002) The antioxidant N-2-mercaptopropionyl glycine attenuates left ventricular hypertrophy in in vivo murine pressure-overload model. J Am Coll Cardiol 39: 907-912.]. Briefly, 8- to 10-week-old mice were anesthetized with anesthetic (0.3 mg/kg of medetomidine, 4.0 mg/kg of midazolam, and 5.0 mg/kg of butorphanol) administered intraperitoneally, and the proximal portion of the sternum was cut open to visualize the aorta. A 7-0 silk suture was placed around the aortic arch distal to the brachiocephalic artery. The suture was tightened firmly around a blunt 26-gauge needle placed adjacent to the aorta. The needle was then removed, and the chest and overlying skin were closed. Sham-operated mice underwent an identical surgical procedure without ligation of the aortic arch. At the end of the operation, 0.3 mg/kg of atipamezole was administered subcutaneously to reverse medetomidine. FIG. 1 is a schematic diagram of TAC.
To extract total RNA, tissue samples were homogenized using a polytron homogenizer in 1 mL of TriPure reagent (Sigma-Aldrich), and the total RNA was extracted in accordance with the manufacture's protocol. Total RNA extracted from cells was also isolated using 1 mL of TriPure reagent. The quantity and quality of total RNA were determined using a NanoDrop™2000 spectrophotometer (Thermo Scientific).
Total RNA was reverse transcribed by blend primer of random hexamers and oligo-dT 3:1 (volume/volume) using Verso™ cDNA Synthesis Kit (Thermo Fisher Scientific, AB1453A) in accordance with the manufacturer's protocol, and the cDNA was analyzed by qRT-PCR. qRT-PCR measurements used THUNDERBIRD SYBR qPCR Mix (TOYOBO) in accordance with the manufacturer's instructions. Expression levels of messenger RNAs (mRNAs) were normalized by the indicated housekeeping genes, and calculated by the 2^−ΔΔCt method. All analyses were performed using a StepOnePlus real-time PCR system and StepOne Software v2.3 (Applied Biosystems, Inc). […]

mouse models of HFpEF = assay: Mouse models of HFpEF (high-fat diet + L-NAME), acute effect; details: high-fat diet+L-NAME group
Protocol: Mouse models of HFpEF were prepared by high-fat diet and administration of L-NG-nitroarginine methyl ester (L-NAME) to test the effect of KUS121 on HFpEF. ICR mice were fed with normal diet and ultrapure water or high-fat diet and 0.5 g/L of L-NAME for 5 weeks.
Then, acute effect of KUS121 on HFpEF was tested. ICR mice fed with normal diet or high-fat diet+0.5 g/L of L-NAME were injected intraperitonially with 50 mg/kg of KUS121 and cardiac function was assessed by echocardiography before and 10 minutes after the injection. No difference in echocardiography was observed between the normal diet group and the high-fat diet+L-NAME group before injection of 5% glucose or KUS121 (FIG. 26). EF was not changed after […] in the control group and the high-fat diet+L-NAME group (FIG. 26, left and middle), but was increased after KUS121 injection in the high-fat diet+L-NAME group (FIG. 26, right).
Diastolic function was also tested. Global longitudinal strain (GLS), E/A, and E/E′ were assessed for evaluating cardiac diastolic function. Mice from the high-fat diet+L-NAME group had diastolic dysfunction as indicated by high levels of GLS, E/A, and E/E′ before KUS121 administration, the degree of which varied among the individual animals (FIG. 27).
To assess exercise tolerance, treadmill test (TMT) was performed.

[2] = test system: mouse models of pressure overload-induced cardiac hypertrophy/heart failure (TAC); assay: Mouse models of TAC heart failure during cardiac hypertrophic phase
Protocol: as §1
Total RNA was reverse transcribed by blend primer of random hexamers and oligo-dT 3:1 (volume/volume) using Verso™ cDNA Synthesis Kit (Thermo Fisher Scientific, AB1453A) in accordance with the manufacturer's protocol, and the cDNA was analyzed by qRT-PCR. qRT-PCR measurements used THUNDERBIRD SYBR qPCR Mix (TOYOBO) in accordance with the manufacturer's instructions. Expression levels of messenger RNAs (mRNAs) were normalized by the indicated housekeeping genes, and calculated by the 2^−ΔΔCt method. All analyses were performed using a StepOnePlus real-time PCR system and StepOne Software v2.3 (Applied Biosystems, Inc).
Wheat Germ Agglutinin (WGA) Staining and the Quantification Paraffin-embedded ventricular short-axis sections were stained with FITC-conjugated lectin (Sigma, L4895). Images were captured by Axio Observer7 (Zeiss). Cardiomyocyte cross-sectional area measurement was performed using ImageJ64 software (NIH). Approximately 150-200 cells were measured per heart, and averages were used for the analysis.
To analyze the cardiac function, we used Vevo® 2100 (VISUALSONICS) at the indicated time points after TAC operation. Mice were kept under inhalation anesthesia with 2.5% isoflurane. LV function was measured in M mode of the parasternal short-axis view.
Mouse models of pressure overload-induced cardiac hypertrophy/heart failure were prepared by TAC and were injected intraperitoneally with 50 mg/kg of KUS121 daily for 2 weeks starting immediately after TAC. Sham-operated mice and control mice were injected with 5% glucose. Two weeks after TAC, echocardiography was performed, then the mice were sacrificed, the body weight and heart weight were measured, and heart samples were collected.

[3] = 50 mg/kg i.p., before and after administration
[4] = TAC mice, 50 mg/kg i.p. daily for 2 weeks starting immediately after TAC
[5] = echocardiography two weeks after TAC, 50 mg/kg i.p. daily
[6] = heart tissue, qRT-PCR, 50 mg/kg i.p. daily for 2 weeks after TAC

Cc1cc(F)ccc1-c1ccc(/N=N/c2cc(S(=O)(=O)O)c3ccccc3c2N)cn1 [KUS121, 4-amino-3-[6-(4-fluoro-2-methylphenyl)pyridine-3-ylazo]naphthalene-1-sulfonic acid sodium salt]
ratio of heart weight to body weight [1]: not significantly affected | mRNA level of BNP ([1]; vs 5% glucose control): suppressed the increases | ratio of lung weight to body weight ([1]; vs 5% glucose control): suppressed the increases | E/A (mouse models of HFpEF; [3]): improved | E/E′ (mouse models of HFpEF; [3]): improved | Global longitudinal strain (GLS) (mouse models of HFpEF; [3]): improved | EF (left ventricular ejection fraction) (mouse models of HFpEF; 50 mg/kg i.p., echocardiography before and 10 minutes after injection): increased | blood pressure (mouse models of HFpEF; before and after 50 mg/kg): lowered the blood pressure | exercise tolerance (distance traveled in treadmill test) (mouse models of HFpEF; before and after 50 mg/kg): improved the exercise tolerance | heart rate (mouse models of HFpEF; before and after 50 mg/kg): slightly lowered the heart rate | cardiomyocyte cross-sectional area (WGA staining) [2, 4]: suppressed the increase | heart weight [2, 4]: suppressed the increases | ratio of heart weight to body weight [2, 4]: suppressed the increases | interventricular septum diameter at end-diastole (IVSd) [2, 5]: suppressed both | left ventricular ejection fraction (LVEF) [2, 5]: did not significantly suppress the decrease | left ventricular mass [2, 5]: suppressed both | mRNA levels of cardiac hypertrophy markers (BNP and ANF) [2, 6]: suppressed the increases | mRNA levels of endoplasmic reticulum stress markers (Bip, CHOP, and VCP) [2, 6]: not significantly affected
